From BindingDB's records for doi:10.1016/s0960-894x(00)00170-0 (Merck Research Laboratories, 2000)

Target: Thrombin (Homo sapiens)
Assay: The compound was tested for its ability to inhibit thrombin.

- Ki: 0.24 nM
SMILES: Cc1nc(N)ccc1CNC(=O)Cn1c(C)cc2c(c1=O)NC(=O)[C@](C)(CC(C)C)C2 [N-(6-Amino-2-methyl-pyridin-3-ylmethyl)-2-((R)-3-isobutyl-3,6-dimethyl-2,8-dioxo-2,3,4,8-tetrahydro-1H-[1,7]naphthyridin-7-yl)-acetamide]
